18 compounds from patent US20240025884A1 (Dong-A ST Co., Ltd., priority 2022, published 2024) can be followed below.

In general, IC50 refers to the midpoint of a concentration-inhibition curve.

The structures appear in SMILES notation. Some results are limits rather than exact numbers.

Sequence of GCN2 (Q9P2K8 whole entry): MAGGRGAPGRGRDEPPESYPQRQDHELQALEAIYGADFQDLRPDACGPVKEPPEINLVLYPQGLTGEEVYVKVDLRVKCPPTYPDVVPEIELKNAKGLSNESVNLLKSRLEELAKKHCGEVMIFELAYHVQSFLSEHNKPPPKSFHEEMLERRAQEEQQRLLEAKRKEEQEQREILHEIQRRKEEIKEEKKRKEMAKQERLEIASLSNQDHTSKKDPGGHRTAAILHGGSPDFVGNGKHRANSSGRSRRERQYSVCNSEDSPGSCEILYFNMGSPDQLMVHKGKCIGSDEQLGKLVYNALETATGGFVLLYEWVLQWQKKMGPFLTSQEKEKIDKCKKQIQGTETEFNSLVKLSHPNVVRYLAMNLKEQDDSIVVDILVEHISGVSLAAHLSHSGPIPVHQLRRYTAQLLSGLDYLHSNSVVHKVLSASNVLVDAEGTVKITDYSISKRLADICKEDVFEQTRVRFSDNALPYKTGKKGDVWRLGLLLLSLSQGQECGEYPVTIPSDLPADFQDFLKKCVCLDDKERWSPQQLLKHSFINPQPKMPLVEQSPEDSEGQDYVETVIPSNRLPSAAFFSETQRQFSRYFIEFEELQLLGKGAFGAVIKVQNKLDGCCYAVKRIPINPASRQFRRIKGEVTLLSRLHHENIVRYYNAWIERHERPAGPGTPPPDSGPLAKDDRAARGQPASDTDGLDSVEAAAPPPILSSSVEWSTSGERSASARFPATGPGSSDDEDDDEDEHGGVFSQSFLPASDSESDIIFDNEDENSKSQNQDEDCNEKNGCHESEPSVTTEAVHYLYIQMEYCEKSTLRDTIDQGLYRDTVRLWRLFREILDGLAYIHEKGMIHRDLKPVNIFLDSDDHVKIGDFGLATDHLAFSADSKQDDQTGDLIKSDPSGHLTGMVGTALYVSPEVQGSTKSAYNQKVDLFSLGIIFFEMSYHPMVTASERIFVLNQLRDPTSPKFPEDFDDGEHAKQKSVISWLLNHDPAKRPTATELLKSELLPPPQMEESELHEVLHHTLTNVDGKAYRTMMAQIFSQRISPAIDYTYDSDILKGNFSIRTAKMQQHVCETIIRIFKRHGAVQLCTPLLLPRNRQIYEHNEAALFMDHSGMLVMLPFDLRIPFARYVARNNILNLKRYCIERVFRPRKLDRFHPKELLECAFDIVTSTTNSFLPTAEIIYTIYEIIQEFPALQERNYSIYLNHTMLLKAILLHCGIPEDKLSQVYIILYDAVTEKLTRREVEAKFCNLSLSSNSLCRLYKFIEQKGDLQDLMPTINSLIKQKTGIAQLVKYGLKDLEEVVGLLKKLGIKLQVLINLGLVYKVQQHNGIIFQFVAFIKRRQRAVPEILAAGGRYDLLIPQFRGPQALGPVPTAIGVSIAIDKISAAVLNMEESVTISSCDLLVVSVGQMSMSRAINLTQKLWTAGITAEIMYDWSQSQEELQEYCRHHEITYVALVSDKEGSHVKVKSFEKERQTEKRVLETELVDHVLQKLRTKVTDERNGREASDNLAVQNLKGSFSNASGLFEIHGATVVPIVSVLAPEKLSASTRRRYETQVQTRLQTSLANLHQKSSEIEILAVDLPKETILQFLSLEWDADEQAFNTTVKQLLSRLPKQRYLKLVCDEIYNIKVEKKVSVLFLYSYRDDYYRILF

The target in this assay is GCN2 (Homo sapiens (Human), UniProt Q9P2K8). Kind of assay: GCN2 Biochemical Assay (TR-FRET, GFP-eIF2S1 substrate phosphorylation). The settings on record: read-out: IC50 (GCN2 Inhibitory Activity). In short, it runs like this:
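In-house GCN2 (1.6 nM 2× stock) phosphorylates GFP-eIF2S1 (50 nM 2× stock) with ATP (0.2 mM 2× stock) and tRNA, pH 7.5, 70 min at room temperature; 10-point 3.16-fold compound series. TR-FRET detection with Tb-anti-phospho antibody, 2–3 h, Ex 340/Em 490/520 nm; artifact plate spiked with phospho-substrate.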
Regarding `Cc1cnc(Nc2cc(C)n(C)n2)nc1-c1c[nH]c2c(NC(=O)CN3CC[C@H](Oc4cc(N5CC[C@H](O)C5)ncn4)C3)cccc12` [Example 161, N-(3-(2-((1,5-dimethyl-1H-pyrazol-3-yl)amino)-5-methylpyrimidin-4-yl)-1H-indol-7-yl)-2-((S)-3-((6-((S)-3-hydroxypyrrolidin-1-yl)pyrimidin-4-yl)oxy)pyrrolidin-1-yl)acetamide], the half-inhibitory concentration (IC50) is less than 0.01 µM.

In the case of `Cc1cnc(Nc2cc(C)n(C)n2)nc1-c1c[nH]c2c(NC(=O)CN3CC[C@H](Oc4ncc(F)c(NC5CCCCC5)n4)C3)cccc12` [Example 180, (S)-2-(3-((4-(cyclohexylamino)-5-fluoropyrimidin-2-yl)oxy)pyrrolidin-1-yl)-N-(3-(2-((1,5-dimethyl-1H-pyrazol-3-yl)amino)-5-methylpyrimidin-4-yl)-1H-indol-7-yl)acetamide], the IC50 was 0.01 to 0.1 µM.

As to `CCCCN(CC)c1cc(O[C@H]2CCN(CC(=O)Nc3cccc4c(-c5nc(Nc6cc(C)n(C)n6)ncc5C)c[nH]c34)C2)ncn1` [Example 157, (S)-2-(3-((6-(butyl(ethyl)amino)pyrimidin-4-yl)oxy)pyrrolidin-1-yl)-N-(3-(2-((1,5-dimethyl-1H-pyrazol-3-yl)amino)-5-methylpyrimidin-4-yl)-1H-indol-7-yl)acetamide], the half-inhibitory concentration (IC50) fell in the range of 0.01 to 0.1 µM.

As to `Cc1cnc(Nc2cc(C)n(C)n2)nc1-c1c[nH]c2c(NC(=O)CN3CC[C@H](Oc4cnc(N5CCOCC5)nc4)C3)cccc12` [Example 241, (S)-N-(3-(2-((1,5-dimethyl-1H-pyrazol-3-yl)amino)-5-methylpyrimidin-4-yl)-1H-indol-7-yl)-2-(3-((2-morpholinopyrimidin-5-yl)oxy)pyrrolidin-1-yl)acetamide], the IC50 lay in the range of 0.01 to 0.1 µM.

On to `Cc1cnc(Nc2cc(C)n(C)n2)nc1-c1c[nH]c2c(N3Cc4c(cccc4-c4ccncc4)C3=O)cccc12` [Example 387, 2-(3-(2-((1,5-dimethyl-1H-pyrazol-3-yl)amino)-5-methylpyrimidin-4-yl)-1H-indol-7-yl)-4-(pyridin-4-yl)isoindolin-1-one], for which the IC50 is less than 0.01 µM.

In the case of `Cc1cnc(Nc2cc(C)n(C)n2)nc1-c1c[nH]c2c(N3Cc4c(cccc4-c4ccnc5[nH]ccc45)C3=O)cccc12` [Example 411, 2-(3-(2-((1,5-dimethyl-1H-pyrazol-3-yl)amino)-5-methylpyrimidin-4-yl)-1H-indol-7-yl)-4-(1H-pyrrolo[2,3-b]pyridin-4-yl)isoindolin-1-one], the half-maximal inhibitory concentration (IC50) was less than 0.01 µM.

`Cc1cnc(Nc2cc(C)n(C)n2)nc1-c1c[nH]c2c(NC(=O)CN3CC[C@H](Oc4ccsc4C(=O)O)C3)cccc12` [Example 108, (S)-3-((1-(2-((3-(2-((1,5-dimethyl-1H-pyrazol-3-yl)amino)-5-methylpyrimidin-4-yl)-1H-indol-7-yl)amino)-2-oxoethyl)pyrrolidin-3-yl)oxy)thiophene-2-carboxylic acid]: the half-maximal inhibitory concentration (IC50) was less than 0.01 µM.

Take `Cc1cnc(Nc2cc(C)n(C)n2)nc1-c1c[nH]c2c(NC(=O)C(=O)N3CC[C@H](Oc4ccncc4)C3)cccc12` [Example 18, (S)-N-(3-(2-((1,5-dimethyl-1H-pyrazol-3-yl)amino)-5-methylpyrimidin-4-yl)-1H-indol-7-yl)-2-ox0-2-(3-(pyridin-4-yloxy)pyrrolidin-1-yl)acetamide]: the 50% inhibitory concentration (IC50) fell in the range of 0.01 to 0.1 µM.

Regarding `CCOC(=O)c1cnoc1O[C@H]1CCN(CC(=O)Nc2cccc3c(-c4nc(Nc5cc(C)n(C)n5)ncc4C)c[nH]c23)C1` [Example 121, ethyl (S)-5-((1-(2-((3-(2-((1,5-dimethyl-1H-pyrazol-3-yl)amino)-5-methylpyrimidin-4-yl)-1H-indol-7-yl)amino)-2-oxoethyl)pyrrolidin-3-yl)oxy)isoxazole-4-carboxylate], the IC50 was less than 0.01 µM.

Take `Cc1cnc(Nc2cc(C)n(C)n2)nc1-c1c[nH]c2c(NC(=O)CN3CC(Oc4ccncc4)C3)cccc12` [Example 28, N-(3-(2-((1,5-dimethyl-1H-pyrazol-3-yl)amino)-5-methylpyrimidin-4-yl)-1H-indol-7-yl)-2-(3-(pyridin-4-yloxy)azetidin-1-yl)acetamide]: the half-maximal inhibitory concentration (IC50) was in the range of 0.01 to 0.1 µM.

As for `CNc1cc(O[C@H]2CCN(CC(=O)Nc3cccc4c(-c5nc(Nc6cc(C)n(C)n6)ncc5C)c[nH]c34)C2)ncn1` [Example 141, (S)-N-(3-(2-((1,5-dimethyl-1H-pyrazol-3-yl)amino)-5-methylpyrimidin-4-yl)-1H-indol-7-yl)-2-(3-((6-(methylamino)pyrimidin-4-yl)oxy)pyrrolidin-1-yl)acetamide], the 50% inhibitory concentration (IC50) was less than 0.01 µM.

As for `Cc1cnc(Nc2cc(C)n(C)n2)nc1-c1c[nH]c2c(NC(=O)CN3CC[C@H](Oc4cc(C(=O)N(C)C)on4)C3)cccc12` [Example 125, (S)-3-((1-(2-((3-(2-((1,5-dimethyl-1H-pyrazol-3-yl)amino)-5-methylpyrimidin-4-yl)-1H-indol-7-yl)amino)-2-oxoethyl)pyrrolidin-3-yl)oxy)-N,N-dimethylisoxazole-5-carboxamide], the IC50 was in the range of 0.01 to 0.1 µM.

In the case of `Cc1cnc(Nc2cc(C)n(C)n2)nc1-c1c[nH]c2c(NC(=O)CN3CC[C@H](Oc4ccc(F)cc4)C3)cccc12` [Example 80, (S)-N-(3-(2-((1,5-dimethyl-1H-pyrazol-3-yl)amino)-5-methylpyrimidin-4-yl)-1H-indol-7-yl)-2-(3-(4-fluorophenoxy)pyrrolidin-1-yl)acetamide], the IC50 fell in the range of 0.1 to 1 µM.

Consider `Cc1cnc(Nc2cc(C)n(C)n2)nc1-c1c[nH]c2c(N3Cc4c(-c5ccncc5)ccc(N(C)C)c4C3=O)cccc12` [Example 490, 2-(3-(2-((1,5-dimethyl-1H-pyrazol-3-yl)amino)-5-methylpyrimidin-4-yl)-1H-indol-7-yl)-7-(dimethylamino)-4-(pyridin-4-yl)isoindolin-1-one], for which the concentration for half-maximal inhibition (IC50) lay in the range of 0.01 to 0.1 µM.

For `Cc1cnc(Nc2cc(C)n(C)n2)nc1-c1c[nH]c2c(NC(=O)CN3CC[C@H](Oc4nc(N5CCN(C)CC5)ncc4F)C3)cccc12` [Example 233, (S)-N-(3-(2-((1,5-dimethyl-1H-pyrazol-3-yl)amino)-5-methylpyrimidin-4-yl)-1H-indol-7-yl)-2-(3-((5-fluoro-2-(4-methylpiperazin-1-yl)pyrimidin-4-yl)oxy)pyrrolidin-1-yl)acetamide], the IC50 was less than 0.01 µM.

As for `Cc1cnc(Nc2cc(C)n(C)n2)nc1-c1c[nH]c2c(N3Cc4c(cccc4C4=CCSCC4)C3=O)cccc12` [Example 413, 4-(3,6-dihydro-2H-thiopyran-4-yl)-2-(3-(2-((1,5-dimethyl-1H-pyrazol-3-yl)amino)-5-methylpyrimidin-4-yl)-1H-indol-7-yl)isoindolin-1-one], the 50% inhibitory concentration (IC50) is less than 0.01 µM.

Consider `Cc1cnc(Nc2cc(C)n(C)n2)nc1-c1c[nH]c2c(N3Cc4c(NC(=O)C5CCCC(C)C5)cccc4C3=O)cccc12` (stereo not drawn) [Example 329, N-(2-(3-(2-((1,5-dimethyl-1H-pyrazol-3-yl)amino)-5-methylpyrimidin-4-yl)-1H-indol-7-yl)-1-oxoisoindolin-4-yl)-3-methylcyclohexane-1-carboxamide], for which the half-maximal inhibitory concentration (IC50) was in the range of 0.1 to 1 µM.

Turning to `Cc1cnc(Nc2cc(C)n(C)n2)nc1-c1c[nH]c2c(N3Cc4c(NC(=O)C5(C)CC=CC5)cccc4C3=O)cccc12` [Example 311, N-(2-(3-(2-((1,5-dimethyl-1H-pyrazol-3-yl)amino)-5-methylpyrimidin-4-yl)-1H-indol-7-yl)-1-oxoisoindolin-4-yl)-1-methylcyclopent-3-ene-1-carboxamide], the IC50 fell in the range of 0.01 to 0.1 µM.
